Experimental data reported in patent US9321756B2, “Azole compounds as PIM inhibitors” (priority 2011, dated 2016).
Like-named read-outs stand apart in the source and are kept apart here.

Key:
[1] = target: full length recombinant Pim-2 (Homo sapiens (Human), UniProt Q9P1W9); assay: Pim enzyme assay (HTRF, phosphorylation of biotinylated-BAD (S112) peptide), Pim-2; format: biochemical; conditions: read-out: Pim2_IC50
[2] = target: full length recombinant Pim-1 (Homo sapiens (Human), UniProt P11309); assay: Pim enzyme assay (HTRF, phosphorylation of biotinylated-BAD (S112) peptide), Pim-1; format: biochemical
[3] = Pim-1 enzyme assay, read-out: Pim_1_IC50
[4] = HTRF, 10-point curve, high dose 1 uM, 2 h at RT, read-out: Pim_1_IC50

full length recombinant Pim-2, sequence (Q9P1W9 whole entry): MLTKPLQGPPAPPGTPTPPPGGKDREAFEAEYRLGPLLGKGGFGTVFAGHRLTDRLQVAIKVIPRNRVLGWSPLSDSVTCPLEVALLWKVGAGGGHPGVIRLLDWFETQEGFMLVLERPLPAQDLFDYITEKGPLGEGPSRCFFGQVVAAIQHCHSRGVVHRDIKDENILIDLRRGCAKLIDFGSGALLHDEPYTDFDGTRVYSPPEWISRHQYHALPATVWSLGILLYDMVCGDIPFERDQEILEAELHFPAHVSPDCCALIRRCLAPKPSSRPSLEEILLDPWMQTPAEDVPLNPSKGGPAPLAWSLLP
full length recombinant Pim-1, sequence (P11309 whole entry): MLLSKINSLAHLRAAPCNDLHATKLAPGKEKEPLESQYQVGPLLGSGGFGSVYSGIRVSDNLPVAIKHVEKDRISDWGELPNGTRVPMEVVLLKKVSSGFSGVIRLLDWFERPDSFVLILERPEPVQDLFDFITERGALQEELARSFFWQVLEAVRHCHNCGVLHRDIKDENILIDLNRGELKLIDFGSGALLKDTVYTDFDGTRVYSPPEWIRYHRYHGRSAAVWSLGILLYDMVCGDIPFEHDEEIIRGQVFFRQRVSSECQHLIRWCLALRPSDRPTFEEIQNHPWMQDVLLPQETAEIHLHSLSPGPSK

SMILES | IC50 ([1]; Pim-2 enzyme assay) [µM] | IC50 [2, 3] [µM] | IC50 [2] [µM] | IC50 [2, 4] [µM] | IC50 [1] [µM]
Nc1nnc(-c2ccc3[nH]cc(-c4ccccc4F)c3n2)o1 [Example 9, 5-(3-(2-fluorophenyl)-1H-pyrrolo[3,2-b]pyridin-5-yl)-1,3,4-oxadiazol-2-amine] | 0.717 | 0.644 | – | – | –
CC(C)c1ccnc(-c2c[nH]c3ccc(-c4nnc(NCC#N)o4)cc23)n1 [Example 45, 2-((5-(3-(4-isopropylpyrimidin-2-yl)-1H-indol-5-yl)-1,3,4-oxadiazol-2-yl)amino)acetonitrile] | 0.00283 | 0.00383 | – | – | –
CC(C)Nc1nnc(-c2ccc3[nH]cc(-c4nc(C(=O)O)cc(C5CC5)n4)c3c2)o1 [Example 47, 6-cyclopropyl-2-(5-(5-(isopropylamino)-1,3,4-oxadiazol-2-yl)-1H-indol-3-yl)pyrimidine-4-carboxylic acid] | 0.00116 | 0.0201 | – | – | –
CC(C)(C)Nc1nnc(-c2ccc3[nH]cc(-c4nccc(C5CC5)n4)c3c2)o1 [Example 54, N-tert-butyl-5-(3-(4-cyclopropylpyrimidin-2-yl)-1H-indol-5-yl)-1,3,4-oxadiazol-2-amine 2,2,2-trifluoroacetate] | – | 0.00158 | – | – | 0.00239
COc1ccnc(-c2c[nH]c3ccc(-c4nnc(NC(C)C)o4)cc23)n1 [Example 59, N-isopropyl-5-(3-(4-methoxypyrimidin-2-yl)-1H-indol-5-yl)-1,3,4-oxadiazol-2-amine] | 0.0167 | 0.0304 | – | – | –
CC(C)Nc1nnc(-c2ccc3[nH]cc(-c4nccc(OC5CCCN(C)C5)n4)c3c2)o1 (stereo not drawn) [Example 62, N-isopropyl-5-(3-(4-((1-methylpiperidin-3-yl)oxy)pyrimidin-2-yl)-1H-indol-5-yl)-1,3,4-oxadiazol-2-amine 2,2,2-trifluoroacetate] | – | 0.0695 | – | – | 0.207
CC(C)Oc1cccc(-c2c[nH]c3ccc(-c4nc(N)ns4)cc23)n1 [Example 63, 5-(3-(6-isopropoxypyridin-2-yl)-1H-indol-5-yl)-1,2,4-thiadiazol-3-amine] | 0.4 | 0.551 | – | – | –
CC(C)Nc1cncc(-c2c[nH]c3ccc(-c4nsc(N)n4)cc23)n1 [Example 66, 3-(3-(6-(isopropylamino)pyrazin-2-yl)-1H-indol-5-yl)-1,2,4-thiadiazol-5-amine] | 0.649 | 0.0201 | – | – | –
CC(C)Nc1cncc(-c2c[nH]c3ccc(-c4nc(N)no4)cc23)n1 [Example 67, 5-(3-(6-(isopropylamino)pyrazin-2-yl)-1H-indol-5-yl)-1,2,4-oxadiazol-3-amine] | – | 0.00579 | – | – | 0.0589
CC(C)Oc1cccc(-c2c[nH]c3ccc(-c4nc(N)no4)cc23)n1 [Example 68, 5-(3-(6-isopropoxypyridin-2-yl)-1H-indol-5-yl)-1,2,4-oxadiazol-3-amine] | – | 0.0427 | – | – | 0.0797
CC(C)Oc1cccc(-c2c[nH]c3ccc(-c4noc(N)n4)cc23)n1 [Example 69, 3-(3-(6-isopropoxypyridin-2-yl)-1H-indol-5-yl)-1,2,4-oxadiazol-5-amine] | 0.668 | 0.241 | – | – | –
CC(C)Nc1cncc(-c2c[nH]c3ccc(-c4noc(N)n4)cc23)n1 [Example 70, 3-(3-(6-(isopropylamino)pyrazin-2-yl)-1H-indol-5-yl)-1,2,4-oxadiazol-5-amine] | 0.362 | 0.0304 | – | – | –
CC(C)Nc1nc(-c2ccc3[nH]cc(-c4cncc(OC(C)C)n4)c3c2)no1 [Example 73, 3-(3-(6-isopropoxypyrazin-2-yl)-1H-indol-5-yl)-N-isopropyl-1,2,4-oxadiazol-5-amine] | – | 0.0459 | – | – | 0.504
CNc1nnc(-c2ccc3[nH]cc(-c4nccc(-c5ccccc5)n4)c3c2)s1 [Example 131, N-methyl-5-(3-(4-phenyl-2-pyrimidinyl)-1H-indol-5-yl)-1,3,4-thiadiazol-2-amine] | 0.0358 | 0.0882 | – | – | –
CNC(=O)c1ccc(-c2c[nH]c3ccc(-c4nnc(NC(C)C)o4)cc23)nc1 [Example 295, N-methyl-6-(5-(5-((1-methylethyl)amino)-1,3,4-oxadiazol-2-yl)-1H-indol-3-yl)-3-pyridinecarboxamide] | – | – | – | 0.578 | –

More lines, main results first:

IC50 ([1]; Pim-2 enzyme assay) [µM] | IC50 [2, 3] [µM] | IC50 [2] [µM] | IC50 [2, 4] [µM] | SMILES | IC50 [1] [µM]
0.215 | 0.105 | – | – | c1ccc(Nc2nnc(-c3ccc4[nH]cc(-c5cncc(C6CC6)n5)c4c3)o2)cc1 [Example 40, 5-(3-(6-Cyclopropylpyrazin-2-yl)-1H-indol-5-yl)-N-phenyl-1,3,4-oxadiazol-2-amine] | –
– | 0.00253 | – | – | CC(C)Nc1nnc(-c2ccc3[nH]cc(-c4nc(C(N)=O)cc(C5CC5)n4)c3c2)o1 [Example 48, 6-cyclopropyl-2-(5-(5-(isopropylamino)-1,3,4-oxadiazol-2-yl)-1H-indol-3-yl)pyrimidine-4-carboxamide] | –
0.0308 | 0.0925 | – | – | CC(C)Cc1nnc(-c2ccc3[nH]cc(-c4nccc(C5CC5)n4)c3c2)o1 [Example 51, 2-(3-(4-cyclopropylpyrimidin-2-yl)-1H-indol-5-yl)-5-isobutyl-1,3,4-oxadiazole] | –
0.0287 | – | 0.00877 | – | COc1nc(-c2c[nH]c3ccc(-c4nnc(NC(C)(C)C)o4)cc23)ncc1F [Example 55, N-tert-butyl-5-(3-(5-fluoro-4-methoxypyrimidin-2-yl)-1H-indol-5-yl)-1,3,4-oxadiazol-2-amine 2,2,2-trifluoroacetate] | –
– | 0.00253 | – | – | CC(C)(C)Nc1nnc(-c2ccc3[nH]cc(-c4ncc(F)c(C5CC5)n4)c3c2)o1 [Example 56, N-tert-butyl-5-(3-(4-cyclopropyl-5-fluoropyrimidin-2-yl)-1H-indol-5-yl)-1,3,4-oxadiazol-2-amine] | –
0.021 | 0.00579 | – | – | CCc1nc(-c2c[nH]c3ccc(-c4nnc(NC(C)(C)C)o4)cc23)ncc1F [Example 57, N-tert-butyl-5-(3-(4-ethyl-5-fluoropyrimidin-2-yl)-1H-indol-5-yl)-1,3,4-oxadiazol-2-amine] | –
0.0135 | 0.0201 | – | – | CC(C)Nc1nnc(-c2ccc3[nH]cc(-c4nccc(OC(C)C)n4)c3c2)o1 [Example 60, 5-(3-(4-isopropoxypyrimidin-2-yl)-1H-indol-5-yl)-N-isopropyl-1,3,4-oxadiazol-2-amine] | –
0.0468 | 0.0459 | – | – | CC(C)Nc1nnc(-c2ccc3[nH]cc(-c4nccc(N5CCN(C)C(=O)C5)n4)c3c2)o1 [Example 61, 4-(2-(5-(5-(isopropylamino)-1,3,4-oxadiazol-2-yl)-1H-indol-3-yl)pyrimidin-4-yl)-1-methylpiperazin-2-one] | –
– | 0.335 | – | – | CC(C)Oc1cccc(-c2c[nH]c3ccc(-c4nsc(N)n4)cc23)n1 [Example 65, 3-(3-(6-isopropoxypyridin-2-yl)-1H-indol-5-yl)-1,2,4-thiadiazol-5-amine] | –
0.538 | 0.0695 | – | – | CC(C)Oc1cncc(-c2c[nH]c3ccc(-c4noc(N)n4)cc23)n1 [Example 71, 3-(3-(6-isopropoxypyrazin-2-yl)-1H-indol-5-yl)-1,2,4-oxadiazol-5-amine] | –
– | 0.0695 | – | – | CNc1nc(-c2ccc3[nH]cc(-c4cncc(OC(C)C)n4)c3c2)no1 [Example 72, 3-(3-(6-isopropoxypyrazin-2-yl)-1H-indol-5-yl)-N-methyl-1,2,4-oxadiazol-5-amine] | –
> 1 | 0.186 | – | – | CC(=O)Nc1nc(-c2ccc3[nH]cc(-c4cncc(OC(C)C)n4)c3c2)no1 [Example 74, N-(3-(3-(6-isopropoxypyrazin-2-yl)-1H-indol-5-yl)-1,2,4-oxadiazol-5-yl)acetamide] | –
0.838 | > 1 | – | – | Nc1nnc(-c2ccc3[nH]cc(-c4cc(C(F)(F)F)ncn4)c3c2)o1 [Example 95, 5-(3-(6-(trifluoromethyl)-4-pyrimidinyl)-1H-indol-5-yl)-1,3,4-oxadiazol-2-amine] | –
– | 0.389 | – | – | CC(C)Cn1cc(-c2c[nH]c3ccc(-c4nnc(N)o4)nc23)cn1 [Example 127, 5-(3-(1-(2-methylpropyl)-1H-pyrazol-4-yl)-1H-pyrrolo[3,2-b]pyridin-5-yl)-1,3,4-oxadiazol-2-amine] | –
1.22 | 0.398 | – | – | CCN(C)c1cnc(-c2c[nH]c3ccc(-c4nnc(N)s4)cc23)cn1 [Example 188, 5-(5-(5-amino-1,3,4-thiadiazol-2-yl)-1H-indol-3-yl)-N-ethyl-N-methyl-2-pyrazinamine] | –
1.95 | 1.14 | – | – | CNc1nnc(-c2ccc3[nH]cc(-c4ccccc4)c3c2)s1 [Example 223, N-methyl-5-(3-phenyl-1H-indol-5-yl)-1,3,4-thiadiazol-2-amine] | –
0.141 | 0.0267 | – | – | CC1(C)COCCN1c1nnc(-c2ccc3[nH]cc(-c4cncc(C5CC5)n4)c3c2)o1 [Example 253, 3-(6-cyclopropyl-2-pyrazinyl)-5-(5-(3,3-dimethyl-4-morpholinyl)-1,3,4-oxadiazol-2-yl)-1H-indole] | –
0.0369 | 0.0304 | – | – | CCOc1nc(-c2c[nH]c3ccc(-c4nnc(NC(C)C)o4)cc23)ncc1F [Example 259, 5-(3-(4-ethoxy-5-fluoro-2-pyrimidinyl)-1H-indol-5-yl)-N-(1-methylethyl)-1,3,4-oxadiazol-2-amine] | –
– | – | – | 0.664 | CC(C)Nc1nnc(-c2ccc3[nH]cc(-c4cccc(C(=O)NC5CC5)n4)c3c2)o1 [Example 294, N-cyclopropyl-6-(5-(5-((1-methylethyl)amino)-1,3,4-oxadiazol-2-yl)-1H-indol-3-yl)-2-pyridinecarboxamide] | –
– | – | – | 0.291 | CC(C)Nc1nnc(-c2ccc3[nH]cc(-c4cc(C(=O)N(C)C)ccc4F)c3c2)o1 [Example 302, 4-fluoro-N,N-dimethyl-3-(5-(5-((1-methylethyl)amino)-1,3,4-oxadiazol-2-yl)-1H-indol-3-yl)benzamide] | –
– | – | – | 0.268 | CC(C)Nc1nnc(-c2ccc3[nH]cc(-c4ccc(C(N)=O)cn4)c3c2)o1 [Example 303, 6-(5-(5-((1-methylethyl)amino)-1,3,4-oxadiazol-2-yl)-1H-indol-3-yl)-3-pyridinecarboxamide] | –
